Experimental data published in PubChem BioAssay AID248 (DTP/NCI, 2004).
“And” between values parts separate entries of the source, which are not always exact repeats. Equal entries are not always repeated. Toxic doses and inconclusive results are not listed. No stated cut-off is given here; in the data, active means T/C of 150% or more; inactive means T/C below 125%.

Tested on: L1210 leukemia ip in BDF1 mice, survival T/C
Assay: NCI In Vivo Anticancer Drug Screen. Data for tumor model L1210 Leukemia (intraperitoneal) in B6D2F1 (BDF1) mice
Settings: endpoint: mean survival time, higher = longer survival
How it was run: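 Value reflects the ratio of survival in compound-treated mice to survival in vehicle-treated controls, with both groups carrying the same transplanted tumor.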

[1] = dose: 50.0 mg/kg/injection, schedule: Q01DX001 (ip), vehicle: carboxymethylcellulose (CMC)
[2] = dose: 50.0 mg/kg/injection, schedule: Q01DX001 (ip), vehicle: saline
[3] = dose: 100.0 mg/kg/injection, schedule: Q01DX001 (ip), vehicle: carboxymethylcellulose (CMC)
[4] = dose: 100.0 mg/kg/injection, schedule: Q01DX001 (ip), vehicle: saline
[5] = dose: 200.0 mg/kg/injection, schedule: Q01DX001 (ip), vehicle: carboxymethylcellulose (CMC)
[6] = dose: 200.0 mg/kg/injection, schedule: Q01DX001 (ip), vehicle: saline
[7] = dose: 400.0 mg/kg/injection, schedule: Q01DX001 (ip), vehicle: carboxymethylcellulose (CMC)
[8] = dose: 400.0 mg/kg/injection, schedule: Q01DX001 (ip), vehicle: saline
[9] = dose: 100.0 mg/kg/injection, schedule: Q01DX001 (ip), vehicle: saline with Tween-80
[10] = dose: 200.0 mg/kg/injection, schedule: Q01DX001 (ip), vehicle: saline with Tween-80
[11] = dose: 400.0 mg/kg/injection, schedule: Q01DX001 (ip), vehicle: saline with Tween-80
[12] = dose: 100.0 mg/kg/injection, schedule: Q04DX003 (ip), vehicle: Klucel (hydroxypropylcellulose) (HPC)
[13] = dose: 200.0 mg/kg/injection, schedule: Q04DX003 (ip), vehicle: Klucel (hydroxypropylcellulose) (HPC)
[14] = dose: 400.0 mg/kg/injection, schedule: Q04DX003 (ip), vehicle: Klucel (hydroxypropylcellulose) (HPC)
[15] = dose: 100.0 mg/kg/injection, schedule: Q01DX009 (ip), vehicle: saline with Tween-80
[16] = dose: 100.0 mg/kg/injection, schedule: Q04DX003 (ip), vehicle: saline with Tween-80
[17] = dose: 200.0 mg/kg/injection, schedule: Q01DX009 (ip), vehicle: saline with Tween-80
[18] = dose: 200.0 mg/kg/injection, schedule: Q04DX003 (ip), vehicle: saline with Tween-80
[19] = dose: 400.0 mg/kg/injection, schedule: Q04DX003 (ip), vehicle: saline with Tween-80
[20] = dose: 100.0 mg/kg/injection, schedule: Q04DX002 (ip), vehicle: Klucel (hydroxypropylcellulose) (HPC)
[21] = dose: 100.0 mg/kg/injection, schedule: Q01DX009 (ip), vehicle: Klucel (hydroxypropylcellulose) (HPC)
[22] = dose: 200.0 mg/kg/injection, schedule: Q01DX009 (ip), vehicle: Klucel (hydroxypropylcellulose) (HPC)
[23] = dose: 400.0 mg/kg/injection, schedule: Q01DX009 (ip), vehicle: Klucel (hydroxypropylcellulose) (HPC)
[24] = dose: 50.0 mg/kg/injection, schedule: Q01DX009 (ip), vehicle: saline
[25] = dose: 100.0 mg/kg/injection, schedule: Q01DX009 (ip), vehicle: saline
[26] = dose: 100.0 mg/kg/injection, schedule: Q04DX003 (ip), vehicle: saline
[27] = dose: 200.0 mg/kg/injection, schedule: Q04DX003 (ip), vehicle: saline

Measured: T/C

Nc1ncnc2c1ncn2C1OC(CO)C(O)C1N (centres undefined)
inactive: [1] 100 % of control | [2] 103 % of control and 108 % of control | [3] 110 % of control | [4] 98 % of control and 103 % of control | [5] 100 % of control | [6] 90 % of control and 108 % of control | [7] 98 % of control | [8] 100 % of control and 116 % of control

Oc1cc(-c2ccccc2)c(-c2ccccc2)c(-c2ccccc2)c1-c1ccccc1
inactive: [9] 100 % of control | [10] 90 % of control | [11] 88 % of control

CCOc1cccc(Cc2cn(CCC#N)c(=O)[nH]c2=O)c1
inactive: [12] 108 % of control | [13] 89 % of control | [14] 89 % of control

CC1CCCC(CN=Cc2cc([N+](=O)[O-])ccc2O)[N-]1.CC1CCCC(CN=Cc2cc([N+](=O)[O-])ccc2O)[N-]1.[Ni+2] (centres undefined)
inactive: [15] 86 % of control | [16] 95 % of control | [17] 86 % of control | [18] 95 % of control | [19] 86 % of control

NC(CSS(=O)(=O)O)=NCCCCOc1ccccc1
inactive: dose: 6.25 mg/kg/injection, schedule: Q04DX002 (ip), vehicle: Klucel (hydroxypropylcellulose) (HPC) 111 % of control | dose: 12.5 mg/kg/injection, schedule: Q04DX002 (ip), vehicle: Klucel (hydroxypropylcellulose) (HPC) 89 % of control | dose: 25.0 mg/kg/injection, schedule: Q04DX002 (ip), vehicle: Klucel (hydroxypropylcellulose) (HPC) 108 % of control | [20] 97 % of control

N#CC(C#N)=CN1CCCCCC1
inactive: dose: 6.25 mg/kg/injection, schedule: Q01DX009 (ip), vehicle: saline with Tween-80 93 % of control | dose: 6.25 mg/kg/injection, schedule: Q04DX003 (ip), vehicle: saline with Tween-80 96 % of control | dose: 12.5 mg/kg/injection, schedule: Q01DX009 (ip), vehicle: saline with Tween-80 94 % of control | dose: 12.5 mg/kg/injection, schedule: Q04DX003 (ip), vehicle: saline with Tween-80 92 % of control | dose: 25.0 mg/kg/injection, schedule: Q01DX009 (ip), vehicle: saline with Tween-80 89 % of control | dose: 25.0 mg/kg/injection, schedule: Q04DX003 (ip), vehicle: saline with Tween-80 94 % of control

COc1ccc(CN2CCCN(Cc3ccc(OC)cc3OC)C2c2cc(Cl)ccc2O)c(OC)c1
inactive: [2] 95 % of control | [4] 86 % of control | [6] 95 % of control | [8] 86 % of control

C/C(=N/N(CCCCN(/N=C(/C)c1ccccc1)c1ccccc1)c1ccccc1)c1ccccc1
inactive: [2] 97 % of control | [4] 95 % of control | [6] 92 % of control | [8] 92 % of control

CC(C)(C)COC(=O)CCN1CC1
inactive: dose: 20.0 mg/kg/injection, schedule: Q01DX009 (ip), vehicle: Klucel (hydroxypropylcellulose) (HPC) 119 % of control | dose: 20.0 mg/kg/injection, schedule: Q04DX003 (ip), vehicle: Klucel (hydroxypropylcellulose) (HPC) 103 % of control | dose: 40.0 mg/kg/injection, schedule: Q01DX009 (ip), vehicle: Klucel (hydroxypropylcellulose) (HPC) 97 % of control | dose: 40.0 mg/kg/injection, schedule: Q04DX003 (ip), vehicle: Klucel (hydroxypropylcellulose) (HPC) 114 % of control | dose: 80.0 mg/kg/injection, schedule: Q04DX003 (ip), vehicle: Klucel (hydroxypropylcellulose) (HPC) 101 % of control | [12] 110 % of control

CCCCCCCCCCCCCCCCCCCCCCCC(=O)OCC
inactive: [19] 92 % of control

CCOC(=O)/C=C\COC(=O)CC#N
inactive: [15] 102 % of control | [17] 107 % of control | dose: 400.0 mg/kg/injection, schedule: Q01DX009 (ip), vehicle: saline with Tween-80 98 % of control

O=C(OC1COC(n2c(=O)oc3ccc(F)cc32)C(OC(=O)c2ccccc2)C1OC(=O)c1ccccc1)c1ccccc1 (centres undefined)
inactive: [3] 91 % of control | [21] 94 % of control | [5] 89 % of control | [22] 89 % of control | [7] 89 % of control | [23] 87 % of control

O=C1OCC/C1=C/OC(=O)c1ccccc1
inactive: [20] 97 % of control | dose: 200.0 mg/kg/injection, schedule: Q04DX002 (ip), vehicle: Klucel (hydroxypropylcellulose) (HPC) 87 % of control

CCC(C)C(CCCN1CCCCC1)(CNC(=O)CN(CC)CC)c1cccc2ccccc12 (centres undefined)
inactive: dose: 25.0 mg/kg/injection, schedule: Q01DX009 (ip), vehicle: saline 96 % of control | [24] 100 % of control | [25] 103 % of control | [26] 103 % of control

Cc1cc(C)n(-c2nn3nnnc3c3ccccc23)n1
inactive: dose: 62.5 mg/kg/injection, schedule: Q04DX003 (ip), vehicle: saline 101 % of control | dose: 125.0 mg/kg/injection, schedule: Q04DX003 (ip), vehicle: saline 95 % of control | dose: 250.0 mg/kg/injection, schedule: Q04DX003 (ip), vehicle: saline 93 % of control

Clc1nnc(Nc2ccccc2)c2ccccc12
inactive: [21] 96 % of control | [22] 93 % of control | [27] 93 % of control | dose: 400.0 mg/kg/injection, schedule: Q04DX003 (ip), vehicle: saline 91 % of control

Cc1ccc(S(=O)(=O)Nc2cc(C)cc(CCN)c2C)cc1
inactive: [1] 98 % of control | [3] 101 % of control | [5] 98 % of control | [7] 93 % of control

CC1(C)C(=NNc2ccccc2)C(C)(C)C1=NNc1ccccc1
inactive: dose: 25.0 mg/kg/injection, schedule: Q01DX009 (ip), vehicle: Klucel (hydroxypropylcellulose) (HPC) 93 % of control | [21] 93 % of control and 88 % of control | [12] 97 % of control | [13] 96 % of control | [14] 97 % of control

O=C1CC2(CCN(Cc3ccccc3)CC2)C(=O)N1Nc1ccccc1
inactive: dose: 100.0 mg/kg/injection, schedule: Q01DX001 (ip), vehicle: Klucel (hydroxypropylcellulose) (HPC) 105 % of control | dose: 200.0 mg/kg/injection, schedule: Q01DX001 (ip), vehicle: Klucel (hydroxypropylcellulose) (HPC) 100 % of control | dose: 400.0 mg/kg/injection, schedule: Q01DX001 (ip), vehicle: Klucel (hydroxypropylcellulose) (HPC) 100 % of control

CCCCCCCC(C(=O)O)C(CCCCCCC)C(=O)O (centres undefined)
inactive: dose: 6.0 mg/kg/injection, schedule: Q01DX009 (ip), vehicle: saline 89 % of control | dose: 12.0 mg/kg/injection, schedule: Q01DX009 (ip), vehicle: saline 96 % of control | dose: 12.0 mg/kg/injection, schedule: Q04DX003 (ip), vehicle: saline 98 % of control | dose: 25.0 mg/kg/injection, schedule: Q04DX003 (ip), vehicle: saline 104 % of control

CS(=O)(=O)OCC1CC=CCC1COS(C)(=O)=O (centres undefined)
inactive: [21] 96 % of control | [22] 102 % of control | [23] 94 % of control

CCC1=C(C)C(=O)Nc2c3ncnc-3ncn2C1O (centres undefined)
inactive: [9] 100 % of control | [10] 105 % of control | [11] 103 % of control

O=C(NC(CSC(=O)c1ccccc1)C(=O)O)OCc1ccccc1 (centres undefined)
inactive: [21] 104 % of control | [12] 101 % of control | [22] 93 % of control | [13] 95 % of control | [14] 95 % of control

CCCC(CCC)(S(=O)(=O)CC)S(=O)(=O)CC
inactive: [3] 97 % of control | [5] 97 % of control | [7] 92 % of control

NC(=O)C(CCO)n1ccc(N)nc1=O (centres undefined)
inactive: [4] 94 % of control | [6] 98 % of control | [8] 102 % of control

O=c1ccn2ccccc2n1
inactive: [24] 101 % of control | [25] 99 % of control | [26] 103 % of control | dose: 200.0 mg/kg/injection, schedule: Q01DX009 (ip), vehicle: saline 98 % of control | [27] 109 % of control

CCOC(=O)c1cnn(C(N)=S)c1N
inactive: dose: 50.0 mg/kg/injection, schedule: Q01DX009 (ip), vehicle: saline with Tween-80 95 % of control | [15] 98 % of control | [16] 102 % of control | [18] 105 % of control | [19] 96 % of control
